The source of these data is patent US20260373266A1, “PROTEIN DEGRADERS AND USES THEREOF” (KYMERA THERAPEUTICS, INC., priority 2022, published 2026).

The assay deals with T1, DCAF1 WD40 domain (residues 1077-1390) (Homo sapiens, UniProt Q9Y4B6).
T1 construct: DCAF1 WD40 domain (residues 1077-1390)
The experiment in a line: DCAF1 binding assay by SPR (Biacore 8K+), DCAF1-3 KD. Conditions: 25 °C, read-out: DCAF1-3 SPR (KD).

pKd: −log10 of the molar value.

T1 sequence (Q9Y4B6 1077-1390): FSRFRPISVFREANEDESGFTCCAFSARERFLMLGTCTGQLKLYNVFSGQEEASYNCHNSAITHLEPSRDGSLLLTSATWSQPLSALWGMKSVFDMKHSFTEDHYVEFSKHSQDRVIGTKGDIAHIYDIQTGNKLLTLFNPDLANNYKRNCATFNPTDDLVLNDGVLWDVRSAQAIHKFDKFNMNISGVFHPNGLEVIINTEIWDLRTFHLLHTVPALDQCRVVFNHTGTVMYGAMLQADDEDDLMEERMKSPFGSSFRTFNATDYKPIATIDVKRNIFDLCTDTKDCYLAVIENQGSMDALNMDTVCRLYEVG

Regarding `CO/N=C(/c1ccccc1)c1[nH]cc(C(=O)N[C@@H](CC(N)=O)c2cccc(Cl)c2)c1-c1c(F)ccc(F)c1C` [I-758], the pKd (commonly the negative decadic logarithm of the Kd, by convention in mol/L) is greater than 5.00.
In the case of `C=CC(=O)NCCOCC1CCN(c2ccnc(N[C@@H]3CCCN(c4cccc(F)c4)C3)c2)CC1` [I-803] it was 4.00 to 5.00; in that of `NC(=O)C[C@H](NC(=O)c1cn[nH]c1-c1cccnc1)c1cccc(Cl)c1` [I-127], 4.00 to 5.00; in that of `OCCC[C@@H]1C[C@H]2[C@H](CCCN2c2cccc(F)c2)N1c1cc(N2CCCCC2)ccn1` [I-830], 4.00 to 5.00.
Regarding `O=C(N[C@H](c1cccc(Cl)c1)[C@@H]1CCNC1=O)c1c[nH]nc1-c1ccccc1F` [I-193], the pKd is less than 3.70.
In the case of `c1ccc2c(N3CCC[C@@H](Nc4cc(N5CCOCC5)ccn4)C3)nccc2c1` [I-62] it was less than 3.70; in that of `C=CC(=O)N1CCC(c2n[nH]cc2C(=O)N[C@@H](CC(N)=O)c2cccc(Cl)c2)=N1` [I-471], less than 3.70.
In the case of `OCc1cnc(N2CCOCC2)cc1N[C@@H]1CCCN(c2cccc(F)c2)C1` [I-410] it was less than 3.70.
Then `Fc1cccc([C@H]2CCC[C@@H](Nc3nccc(N4CCOCC4)n3)C2)c1` [I-181], with less than 3.70; and `Fc1cccc(N2CCC[C@@H](N(Cc3ccccc3)c3nccc(N4CCOCC4)n3)C2)c1` [I-34], with less than 3.70; and `Fc1cccc(N2CCC[C@@H](n3ccc(N4CCOCC4)c4ccnc3-4)C2)c1` [I-58], with 4.00 to 5.00.
For `Oc1cccc(N2CCC[C@@H](Nc3cc(N4CCOCC4)ncn3)C2)c1` [I-13], the pKd is less than 3.70.
In the case of `Cc1c(F)ccc(F)c1-c1[nH]ncc1C(=O)N[C@@H](CC(=O)N1CCOCC1)c1cccc(Cl)c1` [I-842] it was greater than 5.00; in that of `O=C1C[C@@H]([C@@H](NC(=O)c2cn[nH]c2-c2ccccc2F)c2cccc(Cl)c2)CN1` [I-560], less than 3.70; in that of `C=CC(=O)N(C)C1CC(N(C)c2ccnc(N[C@@H]3CCCN(c4cccc(F)c4)C3)c2)C1` (some centres unmarked) [I-463], less than 3.70.
In the case of `c1ccc(Cc2ccc(N3CCC[C@@H](Nc4cc(N5CCOCC5)ccn4)C3)nc2)cc1` [I-435] it was less than 3.70; in that of `C=CC(=O)n1cc(-c2n[nH]cc2C(=O)N[C@@H](CC(N)=O)c2cccc(Cl)c2)cn1` [I-472], less than 3.70; in that of `COCCc1ccc(-c2[nH]ncc2C(=O)N[C@@H](CC(N)=O)c2cccc(Cl)c2)c(F)c1` [I-511], greater than 5.00.
In the case of `Fc1cccc(N2CCC[C@@H](Nc3cc(N4C5CCCC4CC5)ccn3)C2)c1` [I-617], the pKd was greater than 5.00.
In the case of `OC[C@H]1C[C@@H](Nc2cc(N3CCCCC3)ccn2)CN(c2cccc(F)c2)C1` [I-936], the pKd is 4.00 to 5.00.
In the case of `Cc1ccc(CCCOCCOCCOCCOCCOCCN)c(F)c1-c1c(C(=O)N[C@@H](CC(N)=O)c2cccc(Cl)c2)c[nH]c1C#N` [I-978] it was greater than 5.00.
Take `c1ccc2c(N3CCC[C@@H](Nc4nccc(N5CCOCC5)n4)C3)nccc2c1` [I-36]: the pKd was 4.00 to 5.00.
Then `c1cncc(N2CCC[C@@H](Nc3cc(N4CCOCC4)ncn3)C2)c1` [I-12], with less than 3.70.
In the case of `NC(=O)C[C@H](NC(=O)[C@@H]1CC[C@](O)(c2ccccc2)C1)c1cccc(Cl)c1` [I-444] it was less than 3.70; in that of `CCOC(=O)Cc1ccc(N2CCC[C@@H](Nc3cc(N4CCOCC4)ccn3)C2)cn1` [I-782], less than 3.70.
In the case of `C[C@@H]1CCCCN1c1ccnc(N[C@@H]2CCCN(c3cccc(F)c3)C2)c1` [I-568] it was greater than 5.00.
In the case of `Fc1cccc(N2CCC[C@@H](Nc3cc(N4CCNCC4)ncn3)C2)c1` [I-373], the pKd is less than 3.70.
`Cc1[nH]cc(C(=O)N[C@@H](CC(N)=O)c2cccc(Cl)c2)c1-c1c(F)cccc1F` [I-585]: the pKd is greater than 5.00.
Then `Cc1c(F)ccc(F)c1-c1c(C(=O)N[C@@H](CC(N)=O)c2cccc(Cl)c2)c[nH]c1C(=O)c1ccccc1` [I-653], with greater than 5.00; and `C=CC(=O)N(C)CCCN(C)c1ccnc(N[C@@H]2CCCN(c3cccc(F)c3)C2)c1` [I-462], with 4.00 to 5.00.
In the case of `NCCCCCCCCCCCCCCCCCC(=O)c1[nH]cc(C(=O)N[C@@H](CC(N)=O)c2cccc(Cl)c2)c1-c1ccccc1F` [I-662] it was less than 3.70; in that of `COCCN(c1cc(N2CCOCC2)ccn1)[C@@H]1CCCN(c2cccc(F)c2)C1` [I-76], 4.00 to 5.00; in that of `Fc1cccc(N2CCC[C@@H](Nc3cc(C4CCOCC4)ccn3)C2)c1` [I-92], less than 3.70.
`Fc1cccc(N2CCCC[C@@H](Nc3cc(N4CCOCC4)ncn3)C2)c1` [I-219]: the negative logarithm of the Kd (pKd) is less than 3.70.
Then `c1ccc2c(N3CCC[C@@H](Nc4cncc(N5CCOCC5)c4)C3)nccc2c1` [I-364], with 4.00 to 5.00.
Then `CO[C@@H]1C[C@@H](Nc2cc(N3CCOCC3)ccn2)CN(c2cccc(F)c2)C1` [I-512], with less than 3.70.
`Fc1cccc(N2CCC[C@@H](Nc3cc(N4CC5CC(C5)C4)ccn3)C2)c1` [I-576]: the negative-log Kd (pKd) is greater than 5.00.
Then `NC(=O)Cc1ccc(F)c(-c2[nH]ncc2C(=O)N[C@@H](CC(N)=O)c2cccc(Cl)c2)c1` [I-521], with 4.00 to 5.00.
Then `C=CC(=O)N1CCCC(c2[nH]ncc2C(=O)N[C@@H](CC(N)=O)c2cccc(Cl)c2)C1` (some centres unmarked) [I-542], with 3.70 to 4.00.
In the case of `Oc1ccc(F)cc1N1CCC[C@@H]2[C@H]1CCN2c1cc(N2CCCCC2)ccn1` [I-812] it was 4.00 to 5.00.
Regarding `Cc1c(F)ccc(F)c1-c1[nH]ncc1C(=O)N[C@@H](CC(=O)N1CC(N(C)C)C1)c1cccc(Cl)c1` [I-878], the pKd is greater than 5.00.
In the case of `NC(=O)C[C@H](NC(=O)[C@H]1C[C@@](O)(c2ccccc2)C1)c1cccc(Cl)c1` [I-445] it was less than 3.70; in that of `O=C(N[C@H](c1cccc(Cl)c1)c1ccon1)c1c[nH]nc1-c1ccccc1F` [I-232], less than 3.70.
Then `Fc1cccc(N2CCC[C@@H](Nc3cc(C4=CCCOC4)ccn3)C2)c1` [I-122], with less than 3.70; and `Fc1cccc(N2CCC[C@@H](Nc3cc([C@H]4CCCOC4)ccn3)C2)c1` [I-125], with less than 3.70; and `OC[C@@H]1CCN(c2cccc(F)c2)C[C@@H]1Nc1cc(N2CCCCC2)ccn1` [I-988], with 3.70 to 4.00.
In the case of `C=CC(=O)N(C)CCCCC1CCN(c2ccnc(N3CC[C@@H]4[C@H]3CCCN4c3cccc(F)c3)c2)CC1` [I-850] it was greater than 5.00; in that of `C=CC(=O)NC1CCN(c2ccnc(N[C@@H]3CCCN(c4cccc(F)c4)C3)c2)C1` (some centres unmarked) [I-456], less than 3.70.
On to `NC(=O)C[C@H](NC(=O)c1c[nH]c(C(=O)c2ccccc2)c1-c1c(F)cc(Cl)cc1F)c1cccc(Cl)c1` [I-946], for which the pKd was greater than 5.00.
In the case of `Fc1cccc(N2CCC[C@@H](N3CCc4c(N5CCOCC5)ccnc43)C2)c1` [I-196] it was greater than 5.00.
In the case of `C=CC(=O)NCC1CCN(c2ccnc(N3CC[C@@H]4[C@H]3CCCN4c3cccc(F)c3)c2)CC1` [I-665] it was 4.00 to 5.00; in that of `O=C1C(Nc2cc(N3CCOCC3)ccn2)CCCN1c1cccc(F)c1` (centres unmarked) [I-502], less than 3.70; in that of `CCC(=O)N1C[C@H](c2ccc(Br)cc2)[C@@H]1C(=O)Nc1cccc2cccnc12` [I-518], less than 3.70.
In the case of `Cc1cccc(F)c1-c1[nH]ncc1C(=O)N[C@H](CC(N)=O)c1cc(Cl)cc(Cl)c1` [I-736] it was greater than 5.00; in that of `COCCOCC[C@@H]1CN(c2cc(N3CCCCC3)ccn2)[C@@H]2CCCN(c3cccc(F)c3)[C@H]12` [I-996], 4.00 to 5.00; in that of `Fc1cccc(N2CC[C@@H](Nc3cc(N4CCOCC4)ncn3)C2)c1` [I-217], less than 3.70.
Consider `NC(=O)C[C@H](NC(=O)c1c(-c2ccccc2F)cc[nH]c1=O)c1cccc(Cl)c1` [I-216], for which the pKd is less than 3.70.
Then `Fc1cccc(N2CCC[C@H](Nc3cc(N4CCOCC4)ncn3)C2)c1` [I-313], with less than 3.70; and `CNC(=O)C[C@H](NC(=O)c1c[nH]c(C(=O)COCCOCCOCCOCCOCCNC(=O)C[C@@H]2N=C(c3ccc(Cl)cc3)c3c(sc(C)c3C)-n3c(C)nnc32)c1-c1c(F)ccc(F)c1C)c1cccc(Cl)c1` [I-910], with greater than 5.00.
Then `Fc1cccc(N2C3CC[C@H]2CC[C@H]3Nc2nccc(N3CCOCC3)n2)c1` (stereo in doubt) [I-60], with 3.70 to 4.00; and `Cc1c(F)ccc(F)c1-c1c(C(=O)N[C@@H](CC(N)=O)c2cccc(Cl)c2)cn(C)c1C(=O)c1ccc(O)cc1` [I-1030], with greater than 5.00.
In the case of `Cc1nc(Nc2ncc(C(=O)Nc3c(C)cccc3Cl)s2)cc(N2CCC(OC3CCN(CCCCCCCC(=O)N4CCN(c5ccc6c(NCCN)nc(C7(c8ccc(Cl)cc8)CCCCC7)nc6c5)CC4)CC3)CC2)n1` [I-1053] it was greater than 5.00.
For `OCc1cnc2ccc(N3CCC[C@@H](Nc4cc(N5CCCCC5)ccn4)C3)nn12` [I-760], the pKd is less than 3.70.
In the case of `NC(=O)C[C@H](NC(=O)c1cnn(C(=O)c2ccccc2)c1-c1ccccc1F)c1cccc(Cl)c1` [I-173] it was less than 3.70; in that of `Cc1cccc(F)c1-c1c[nH]cc1C(=O)N[C@@H](CC(N)=O)c1cccc(Cl)c1` [I-592], greater than 5.00.
In the case of `Fc1cccc(N2CCC[C@@H](Nc3cc(N4C[C@H]5C[C@@H]4CO5)ncn3)C2)c1` [I-310] it was less than 3.70; in that of `Cc1c(F)ccc(F)c1-c1c(C(=O)N[C@@H](CC(=O)N2CCNCC2)c2cccc(Cl)c2)c[nH]c1C#N` [I-876], greater than 5.00.
In the case of `C[C@H](C(N)=O)[C@H](NC(=O)c1c[nH]nc1-c1ccccc1F)c1cccc(Cl)c1` [I-212] it was less than 3.70; in that of `NC(=O)[C@H]1CC[C@@H](Nc2cc(N3CCCCC3)ccn2)CN1c1cccc(F)c1` [I-1025], 4.00 to 5.00.
For `NC(=O)C[C@H](NC(=O)c1cn[nH]c1-c1ccc(C(N)=O)cc1)c1cccc(Cl)c1` [I-351], the negative logarithm of the Kd (pKd) is 4.00 to 5.00.
Take `CCCn1cc(N2CCC[C@@H](Nc3cc(N4CCOCC4)ccn3)C2)cn1` [I-694]: the pKd was less than 3.70.
Then `Fc1cccc(N2CCC[C@@H](Nc3cc(N4CCOCC4)ccn3)C2F)c1` (some centres unmarked) [I-260], with less than 3.70; and `Cc1cccc(F)c1-c1[nH]ncc1C(=O)N[C@@H](CC(N)=O)c1cccc(Cl)c1` [I-149], with greater than 5.00; and `Fc1cccc(N2CCC[C@@H](N3CCc4c(N5CC6CC(C6)C5)ccnc43)C2)c1` [I-841], with greater than 5.00.
